We go through 13 compounds from PubChem BioAssay (NCI).

Several values for one entry are separate records, joined by “and”; a condition that tells them apart may be missing. Equal values may be shown once.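 In this assay, cells in 96-well plates receive the compound at five concentrations for 48 hours. Endpoints are linearly interpolated between the surrounding concentrations. The concentration for 50% growth inhibition is given as GI50. TGI: total growth inhibition.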 Where a SMILES comes first, the peptide text is derived from it. [ ]: non-standard residue; d: D form. The star is where a group is joined. ξ: configuration not given here. NMeY = CN[C@@H](Cc1ccc(O)cc1)C(=O)O; Cbz = O=C(OCc1ccccc1)*; ξA = CC(N)C(=O)O Bounds are passed on as bounds.

Holding throughout (assay): NCI tumour cell line growth inhibition, 48 h
In experiment [1] the test system is UACC-257 melanoma.
Experiment [2] concerns HS 578T breast.
The test system of experiment [3] is NCI/ADR-RES ovarian.
In experiment [4] the test system is RXF 393 renal.
Experiment [5] concerns SK-MEL-5 melanoma.
The test system of experiment [6] is K-562 leukemia.
For experiment [7], the system named is OVCAR-4 ovarian.
Experiment [8] has as its system SK-MEL-28 melanoma.
Experiment [9] concerns TK-10 renal.
Experiment [10] relates to LOX IMVI melanoma.

On to `C/C(=N\N=C(N)N)c1c(C(=O)OCCCCCCOC(=O)c2nc3sccn3c2/C(C)=N/N=C(N)N)nc2sccn12`, for which the TGI is greater than 100 µM in experiment [1]; greater than 100 µM in experiment [2]; greater than 100 µM in [3]; greater than 100 µM in [4]; greater than 100 µM in experiment [5]; 50.1 µM in experiment [6]. In addition, the TGI in experiment [7] is greater than 100 µM; in [8], greater than 100 µM; in experiment [9], 55.1 µM; in [10], greater than 100 µM.
With `COC(=O)Cc1c(C2=Nc3ccccc3C2(O)CC(=O)OC)[nH]c2ccccc12` (stereo not given), the TGI in experiment [1], in experiment [2], in [3], in [4], in experiment [5] and in experiment [6] was greater than 100 µM each time. The TGI in experiment [8], in experiment [9] and in [10] was greater than 100 µM throughout.
Turning to `O=C(C[C@@H]1NCCC[C@H]1O)Cn1cnc2cc(Br)c(Cl)cc2c1=O`, the TGI turned out to be 1.36 µM in experiment [2]; 0.603 µM in experiment [3]; 0.0814 µM in experiment [4]; 0.0473 µM in experiment [5]; 0.0727 µM in experiment [6]; 0.0809 µM in experiment [7]. Also, the TGI in experiment [8] worked out at 0.119 µM; in experiment [10], 0.0268 µM.
With `O=C1c2cc3c(cc2CC12Cc1cc4c(cc1C2)CCC4)CCC3`, the TGI in [1], in experiment [2], in [3], in experiment [4], in [5] and in experiment [6] was greater than 100 µM each time. Besides, the TGI in [7], in experiment [8], in experiment [9] and in experiment [10] was greater than 100 µM in each case.
On to `CCOC(=O)C1C/C(C)=C(/C)SCCCS1` (stereo not given), for which the TGI in experiment [1], in experiment [2], in [3], in experiment [4], in experiment [5] and in [6] was greater than 100 µM each time. The TGI in [7], in experiment [8], in [9] and in experiment [10] was greater than 100 µM each time.
On to `COc1ccc(C[C@@H](C(=O)NCC(N)=O)N(C)C(=O)[C@@H]2CCCN2C(=O)[C@H](CC(C)C)NC(=O)C(C)NC(=O)OCc2ccccc2)cc1` (stereo not given in full) (Cbz-[ξA]LP[NMeY](Me)G-NH2), for which the TGI in experiment [1], in experiment [2], in experiment [3], in [4], in [5] and in experiment [6] was greater than 100 µM each time. In addition, the TGI in [7], in [8], in [9] and in [10] was greater than 100 µM in each case.
With `Oc1ccc2ccccc2c1-c1nnc(CCCCCCCCc2nnc(-c3c(O)ccc4ccccc34)o2)o1`, the GI50 is 2.26 µM in [1]; 19.6 µM in experiment [2]; 0.38 µM in experiment [3]; 1.39 µM in experiment [4]; 3.15 µM in experiment [5]; 1.68 µM in [6]. In addition, the GI50 is 2.35 µM in experiment [7], greater than 25 µM in [8], greater than 25 µM in experiment [9] and 0.437 µM in experiment [10]. Further, the TGI in experiment [1] was 25 µM and > 100 µM; in experiment [2], 25 µM and > 100 µM; in [4], 7.93 µM and 31.8 µM; in experiment [5], 8.59 µM and 44.2 µM; in [6], 25 µM and > 57.5 µM; in experiment [7], 25 µM. Also, the TGI in [8] is greater than 68.5 µM; in experiment [9], greater than 100 µM; in experiment [10], 25 µM and > 100 µM.
Consider `CCOC(=O)CCC(NC(=O)OCc1ccccc1)C(=O)NNC(=O)OC(C)(C)C` (stereo not given), for which the TGI in experiment [1], in [2], in experiment [3], in [4], in [5] and in experiment [6] was greater than 100 µM each time. Besides, the TGI in experiment [7], in experiment [8], in experiment [9] and in [10] was greater than 100 µM throughout.
On to `CCOC(=O)c1cc(-c2ccc(OC)c(OC)c2)c[nH]1`, for which the TGI in experiment [1], in experiment [2], in experiment [3], in experiment [4], in [5] and in experiment [6] was greater than 10 µM each time. Further, the TGI in experiment [7], in experiment [8], in experiment [9] and in experiment [10] was greater than 10 µM in each case.
As for `Cc1ccc(-c2cc(-c3ccc(Cl)cc3)nc(/N=C3\C(=O)N(CN4CCCCC4)c4ccc(Cl)cc43)n2)cc1`, the TGI in experiment [1] was 71.1 µM; in experiment [2] it was 49.4 µM; in experiment [3], 62.4 µM; in [4] it was 33.2 µM; in [5], 48.1 µM; in [6], greater than 100 µM. Further, the TGI is greater than 100 µM in experiment [7], greater than 100 µM in experiment [8], 71.1 µM in experiment [9] and 53 µM in experiment [10].
As to `Cc1[nH]c(=O)nc(N/N=C/c2ccc(Cl)c(Cl)c2)c1C(=O)Nc1ccc(Cl)c(Cl)c1`, the TGI was greater than 41 µM in experiment [1]; 27.2 µM in experiment [2]; greater than 47.6 µM in experiment [3]; 32.7 µM in experiment [4]; 22.8 µM in [5]; greater than 100 µM in [6]. In addition, the TGI in experiment [7] was 11 µM; in experiment [8], 23.4 µM; in [9], 28 µM; in experiment [10], greater than 57 µM.
`CSc1c(C(C)=O)c(O)n(-c2ccc(Cl)cc2)c(=O)c1C#N`: the TGI was greater than 100 µM in experiment [1]; greater than 100 µM in experiment [2]; greater than 100 µM in experiment [3]; greater than 100 µM in experiment [4]; greater than 100 µM in experiment [5]; 92.2 µM in experiment [6]. The TGI in [7], in experiment [8], in [9] and in experiment [10] was greater than 100 µM each time.
On to `O=S1(=O)NNC(=NCc2ccc(F)cc2)c2ccccc21`, for which the TGI in [1] is greater than 100 µM; in [2], 49.2 µM; in experiment [3], greater than 100 µM; in [4], greater than 69.3 µM; in experiment [5], greater than 100 µM; in [6], greater than 73.1 µM. Also, the TGI in experiment [7], in experiment [8] and in [10] was greater than 100 µM throughout.
